Reference: PMC11435058, “Synthesis of New Thiazole-Privileged Chalcones as Tubulin Polymerization Inhibitors with Potential Anticancer Activities” (Pharmaceuticals, 2024)

Assays:
[1] = system: MDA-MB-231/ATCC; test: NCI-60 anticancer screen (SRB; single dose and five doses); settings: Homo sapiens
[2] = system: T-47D; test: as above; settings: Homo sapiens, T47D
[3] = system: DU-145; test: as above; settings: Homo sapiens
[4] = system: SF-539; test: as above; settings: Homo sapiens
[5] = system: SK-MEL-28; test: as above; settings: Homo sapiens
[6] = system: HL-60(TB); test: as above; settings: Homo sapiens
[7] = system: BT-549; test: as above; settings: Homo sapiens
[8] = system: SN12C; test: as above; settings: Homo sapiens
[9] = system: MDA-MB-435; test: as above; settings: Homo sapiens
[10] = system: SW-620; test: as above; settings: Homo sapiens
[11] = system: M14; test: as above; settings: Homo sapiens
[12] = system: OVCAR-4; test: as above; settings: Homo sapiens
[13] = system: HOP-62; test: as above; settings: Homo sapiens
[14] = system: HCC-2998; test: as above; settings: Homo sapiens, HCC 2998, 48 h, read-out: Growth Percentage
[15] = system: NCI-H23; test: as above; settings: Homo sapiens
[16] = system: RXF 393; test: as above; settings: Homo sapiens
[17] = system: PC-3; test: as above; settings: Homo sapiens
[18] = system: TK-10; test: as above; settings: Homo sapiens
[19] = system: A498; test: as above; settings: Homo sapiens
[20] = system: SK-OV-3; test: as above; settings: Homo sapiens
[21] = system: SNB-19; test: cells; settings: Homo sapiens
[22] = system: MOLT-4; test: NCI-60 anticancer screen (SRB; single dose and five doses); settings: Homo sapiens
[23] = system: 786-0; test: as above; settings: Homo sapiens
[24] = system: MALME-3M; test: as above; settings: Homo sapiens
[25] = system: SK-MEL-5; test: as above; settings: Homo sapiens
[26] = system: UACC-257; test: as above; settings: Homo sapiens
[27] = system: SF-295; test: as above; settings: Homo sapiens
[28] = system: CCRF-CEM; test: NCI-60 anticancer screen (SRB; single dose 10 μM and five doses); settings: Homo sapiens
[29] = 48 h, read-out: Growth Percentage

## Cc1[nH]c(=S)sc1C(=O)/C=C/c1ccc(Cl)cc1 [2f, (E)-3-(4-Chlorophenyl)-1-(4-Methyl-2-Thioxo-2,3-Dihydrothiazol-5-yl)Prop-2-En-1-One]
[1]; MDA-MB-231
  GI50: 16.2 µM
  IC50: 30.9 µM
[1]; MDA-MB-231, 48 h, read-out: Growth Percentage
  activity at 10 µM: 39.3%
[1]; MDA-MB-231, read-out: LC50
  CC50: 61.7 µM
[1]; MDA-MB-231, read-out: TGI
  IC (TGI): 31.6 µM
[2]
  GI50: 3.47 µM
  IC50: 14.1 µM
[2]; [29]
  activity at 10 µM: 1.38%
[2]; read-out: LC50
  CC50: 81.3 µM
[2]; read-out: TGI
  IC (TGI): 19.1 µM
[3]; DU-145
  GI50: 4.9 µM
  IC50: 8.91 µM
[3]; DU-145, 48 h, read-out: Growth Percentage
  activity at 10 µM: 7.29%
[3]; DU-145, read-out: LC50
  CC50: 42.7 µM
[3]; DU-145, read-out: TGI
  IC (TGI): 17.4 µM
[4]; SF-539
  GI50: 6.92 µM
  IC50: 16.2 µM
[4]; SF-539, 48 h, read-out: Growth Percentage
  activity at 10 µM: -30.4%
[4]; SF-539, read-out: TGI
  IC (TGI): 20.4 µM
[5]; SK-MEL-28
  GI50: 14.5 µM
  IC50: 26.3 µM
[5]; SK-MEL-28, 48 h, read-out: Growth Percentage
  activity at 10 µM: 45.7%
[5]; SK-MEL-28, read-out: LC50
  CC50: 53.7 µM
[5]; SK-MEL-28, read-out: TGI
  IC (TGI): 28.2 µM
[6]; HL-60
  GI50: 3.55 µM
  IC50: 5.89 µM
[6]; HL-60, 48 h, read-out: Growth Percentage
  activity at 10 µM: -0.98%
[6]; HL-60, read-out: LC50
  CC50: > 100 µM
[6]; HL-60, read-out: TGI
  IC (TGI): 38 µM
[7]; BT-549
  GI50: 5.75 µM
  IC50: 20.9 µM
[7]; BT-549, 48 h, read-out: Growth Percentage
  activity at 10 µM: -14.4%
[7]; BT-549, read-out: TGI
  IC (TGI): 20.4 µM
[8]
  GI50: 4.9 µM
  IC50: 10.7 µM
[8]; [29]
  activity at 10 µM: 4.62%
[8]; read-out: LC50
  CC50: 43.6 µM
[8]; read-out: TGI
  IC (TGI): 18.2 µM
[9]; MDA-MB-435
  GI50: 5.5 µM
  IC50: 11 µM
[9]; MDA-MB-435, 48 h, read-out: Growth Percentage
  activity at 10 µM: 22.5%
[9]; MDA-MB-435, read-out: LC50
  CC50: 49 µM
[9]; MDA-MB-435, read-out: TGI
  IC (TGI): 19.1 µM
[10]; SW-620
  GI50: 3.09 µM
  IC50: 4.37 µM
[10]; SW-620, 48 h, read-out: Growth Percentage
  activity at 10 µM: 8.02%
[10]; SW-620, read-out: LC50
  CC50: 38.9 µM
[10]; SW-620, read-out: TGI
  IC (TGI): 11.2 µM
[11]; M14
  GI50: 14.1 µM
  IC50: 24.6 µM
[11]; M14, 48 h, read-out: Growth Percentage
  activity at 10 µM: 34.4%
[11]; M14, read-out: TGI
  IC (TGI): 32.4 µM
[12]; OVCAR-4
  GI50: 13.8 µM
  IC50: 25.1 µM
[12]; OVCAR-4, 48 h, read-out: Growth Percentage
  activity at 10 µM: 76.3%
[12]; OVCAR-4, read-out: LC50
  CC50: 55 µM
[12]; OVCAR-4, read-out: TGI
  IC (TGI): 27.5 µM
[13]; HOP-62
  GI50: 5.37 µM
  IC50: 12 µM
[13]; HOP-62, 48 h, read-out: Growth Percentage
  activity at 10 µM: -2.73%
[13]; HOP-62, read-out: LC50
  CC50: 72.4 µM
[13]; HOP-62, read-out: TGI
  IC (TGI): 22.9 µM
[14]
  activity at 10 µM: -21.3%
[15]; NCI-H23
  GI50: 14.8 µM
  IC50: 26.9 µM
[15]; NCI-H23, 48 h, read-out: Growth Percentage
  activity at 10 µM: 36.4%
[15]; NCI-H23, read-out: LC50
  CC50: 58.9 µM
[15]; NCI-H23, read-out: TGI
  IC (TGI): 29.5 µM
[16]; RXF 393
  GI50: 5.89 µM
  IC50: 24 µM
[16]; RXF 393, 48 h, read-out: Growth Percentage
  activity at 10 µM: 9.78%
[16]; RXF 393, read-out: LC50
  CC50: 49 µM
[16]; RXF 393, read-out: TGI
  IC (TGI): 19.9 µM
[17]; PC-3
  GI50: 5.37 µM
  IC50: 9.77 µM
[17]; PC-3, read-out: LC50
  CC50: 81.3 µM
[17]; PC-3, read-out: TGI
  IC (TGI): 23.4 µM
[18]; TK-10
  GI50: 15.1 µM
  IC50: 28.2 µM
[18]; TK-10, 48 h, read-out: Growth Percentage
  activity at 10 µM: 40.4%
[18]; TK-10, read-out: LC50
  CC50: 55 µM
[18]; TK-10, read-out: TGI
  IC (TGI): 28.8 µM
[19]; A498
  GI50: 15.8 µM
  IC50: 30.9 µM
[19]; A498, 48 h, read-out: Growth Percentage, A498, dose of 10 μM
  activity at 10 µM: 106%
[19]; A498, read-out: LC50
  CC50: 56.2 µM
[19]; A498, read-out: TGI
  IC (TGI): 29.5 µM
[20]; SK-OV-3
  GI50: 15.8 µM
  IC50: 30.2 µM
[20]; SK-OV-3, 48 h, read-out: Growth Percentage
  activity at 10 µM: 60.8%
[20]; SK-OV-3, read-out: LC50
  CC50: 66.1 µM
[20]; SK-OV-3, read-out: TGI
  IC (TGI): 32.4 µM
[21]; SNB-19
  GI50: 12 µM
  IC50: 22.4 µM
[21]; SNB-19, 48 h, read-out: Growth Percentage
  activity at 10 µM: 15.8%
[21]; SNB-19, read-out: LC50
  CC50: 50.1 µM
[21]; SNB-19, read-out: TGI
  IC (TGI): 24.6 µM
[22]; MOLT-4
  GI50: 14.5 µM
  IC50: 24.6 µM
[22]; MOLT-4, 48 h, read-out: Growth Percentage
  activity at 10 µM: 10.2%
[22]; MOLT-4, read-out: LC50
  CC50: > 100 µM
[22]; MOLT-4, read-out: TGI
  IC (TGI): 79.4 µM
[23]; 786-0
  GI50: 4.68 µM
  IC50: 7.76 µM
[23]; 786-0, 48 h, read-out: Growth Percentage
  activity at 10 µM: 16.6%
[23]; 786-0, read-out: LC50
  CC50: 58.9 µM
[23]; 786-0, read-out: TGI
  IC (TGI): 20.4 µM
[24]
  GI50: 14.5 µM
  IC50: 30.9 µM
[24]; read-out: LC50
  CC50: 75.9 µM
[24]; read-out: TGI
  IC (TGI): 33.1 µM
[25]; SK-MEL-5
  GI50: 11.2 µM
  IC50: 20.4 µM
[25]; SK-MEL-5, 48 h, read-out: Growth Percentage
  activity at 10 µM: 28%
[25]; SK-MEL-5, read-out: LC50
  CC50: 49 µM
[25]; SK-MEL-5, read-out: TGI
  IC (TGI): 23.4 µM
[26]; UACC-257
  GI50: 13.8 µM
  IC50: 26.9 µM
[26]; UACC-257, 48 h, read-out: Growth Percentage
  activity at 10 µM: 66.8%
[26]; UACC-257, read-out: LC50
  CC50: 56.2 µM
[26]; UACC-257, read-out: TGI
  IC (TGI): 27.5 µM
[27]; SF-295
  GI50: 15.8 µM
  IC50: 28.8 µM
[27]; SF-295, 48 h, read-out: Growth Percentage
  activity at 10 µM: 42.6%
[27]; SF-295, read-out: LC50
  CC50: 55 µM
[27]; SF-295, read-out: TGI
  IC (TGI): 29.5 µM
[28]
  GI50: 2.88 µM
[28]; [29]
  activity at 10 µM: 3.18%
[28]; five doses
  IC50: 2.88 µM
[28]; five-dose, Leukemia CCRF-CEM
  IC50: 3.98 µM
[28]; read-out: TGI
  IC (TGI): 11.2 µM
